Target: T1, hβ1AR (human β1-adrenergic receptor), WT S49 R389 (Homo sapiens, UniProt P08588)
T1 construct: gene ADRB1; full-length WT (S49, R389) with HA signal peptide, N-terminal MYC tag and C-terminal FLAG tag (pFT-SMMF); N-terminal part partly cleaved at R31/L32 in cells
Experiment: radioligand saturation binding, membranes of stable HEK293i cells

T1 sequence (P08588 whole entry G389R): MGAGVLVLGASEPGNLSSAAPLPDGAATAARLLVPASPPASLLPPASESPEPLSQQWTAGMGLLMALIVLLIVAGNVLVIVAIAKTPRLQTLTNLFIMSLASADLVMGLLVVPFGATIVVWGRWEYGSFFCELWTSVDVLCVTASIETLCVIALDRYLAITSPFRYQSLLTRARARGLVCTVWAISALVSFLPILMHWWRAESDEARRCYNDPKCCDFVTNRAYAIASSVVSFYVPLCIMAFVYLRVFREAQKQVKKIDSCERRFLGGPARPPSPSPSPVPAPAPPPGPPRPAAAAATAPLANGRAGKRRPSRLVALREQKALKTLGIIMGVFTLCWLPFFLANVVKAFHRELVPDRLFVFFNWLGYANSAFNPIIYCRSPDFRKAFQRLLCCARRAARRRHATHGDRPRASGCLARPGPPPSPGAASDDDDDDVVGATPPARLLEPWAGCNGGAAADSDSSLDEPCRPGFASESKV

CCCc1ccccc1OCC(O)CNC(C)C (stereo not shown) [[^3H]dihydroalprenolol]
Kd: 0.42 ± 0.04 nM

Reference: article PMC11880984, “Altered O‐glycosylation of β1‐adrenergic receptor N‐terminal single‐nucleotide variants modulates receptor processing and functional activity” (The Febs Journal, 2024)
